Source: article PMC4045308 (Investigational New Drugs, 2013)
Where “and” joins values, the source holds several entries; their conditions need not be identical. Equal entries are not always repeated. Where two headings read alike, the source gives them in different places. Marks after values point to notes of the source that are not given here.

Columns and labels:
[1] = phase I study: DLTs and MTD
Description: Dosing schedules are summarized in Supplementary Fig. S1 (online only). The PIC formulation starting dose was 25 or 35 mg/day. […] For the ECT formulation, the starting dose was 40 mg/day QD for 14 days followed by 14 days’ rest in 28-day cycles.
If 2 of the first 3–6 patients experienced DLTs at a given dose level, dose escalation was delayed while the available safety/clinical data were assessed and a decision made on how to proceed with a modified dose or schedule. […] The use of myeloid growth factors (G-CSF or GM-CSF) or erythropoiesis-stimulating agents was permitted after the DLT evaluation period was completed (cycle 1) and on a case-by-case basis after cycle 2. Treatment continued for up to 12 months, or until disease progression or unacceptable toxicity, with the possibility of treatment extension beyond 12 months if clinical benefit was evident and toxicities were manageable.

[2] = phase I study: plasma pharmacokinetics; format: in vivo, patients; conditions: for AUC(0-t) / Tmax / half-life: human, plasma, oral; for AUC(0-t): read-out: Geometric mean AUC0–tlast (CV, %); for Tmax: read-out: Median Tmax (range)
From the text: PK parameters included: area under the plasma concentration versus time curve, maximum plasma concentration, time to maximum plasma concentration (Tmax), terminal half-life (t1/2), accumulation ratio (Rac), and peak/trough ratio. Secondary endpoints were response rate, duration of response, and evaluation of banked tumor tissue samples for AAK protein expression and gene amplification.
Plasma samples were collected in cycle 1 at various time points on the first day (day 1) and last day (day 7, ECT 7-day schedule; day 14, PIC or ECT 14-day schedules; day 21, PIC 21-day schedule) of treatment. PK parameters were calculated by non-compartmental analysis using WinNonlin software (v5.2.1, Pharsight Corporation, Cary, NC).

[3] = test system: advanced heme-lymphatic malignancies (MM, NHL, CLL); assay: phase I study: antitumor response; format: in vivo, patients
Description: Response was evaluated according to the International Working Group criteria for patients with lymphoma, the International Myeloma Working Group uniform response criteria for patients with MM [28], and the International Workshop on CLL guidelines.

[4] = in vivo
[5] = target: AAK; conditions: read-out: inhibition constant (Ki); cited from earlier work
[6] = test system: AAK; conditions: cell-based assays; cited from earlier work
[7] = target: Aurora B kinase; conditions: cell-based assays; cited from earlier work
[8] = test system: multiple myeloma (MM) cells; conditions: in vitro; cited from earlier work
[9] = test system: xenograft MM model; conditions: cited from earlier work
[10] = test system: mantle cell lymphoma; conditions: cited from earlier work
[11] = twice-daily (BID), 7-day schedule in 21-day cycles, solid tumors; cited from earlier work
[12] = test system: aggressive B- and T-cell NHL; conditions: 50 mg BID, cited from earlier work
[13] = cited from earlier work
[14] = test system: PTCL cell lines; conditions: cited from earlier work
[15] = phase I study: adverse events (NCI-CTCAE v3.0)
[16] = 30 mg, ECT 30 mg BID, 7-day schedule, Day 1, first dose, N 3
[17] = 30 mg, ECT 30 mg BID, 7-day schedule, Day 7, N 3
[18] = 40 mg, ECT 40 mg BID, 7-day schedule, Day 1, first dose, N 9
[19] = 40 mg, ECT 40 mg BID, 7-day schedule, Day 7, N 8
[20] = 50 mg, ECT 50 mg BID, 7-day schedule, Day 7, N 7

## COc1cc(Nc2ncc3c(n2)-c2ccc(Cl)cc2C(c2c(F)cccc2OC)=NC3)ccc1C(=O)O [MLN8237, alisertib]
[1]; ECT 7-day schedule, BID
  MTD: […]
[1]; PIC 14-day schedule, QD
  MTD: […]
[1]; human, in vivo, 7 days
  recommended phase II dose: […]
[2]; ECT 30 mg BID, 7-day schedule, Day 7, N 3
  Geometric mean CLss/F (CV, %): […]
[2]; ECT 40 mg BID, 7-day schedule, Day 7, n=7
  Geometric mean CLss/F (CV, %): […]
[2]; ECT 50 mg BID, 7-day schedule, Day 7, N 7
  Geometric mean CLss/F (CV, %): […]
[2]; all formulations, CV 69 %, n = 42
  Mean CLss/F: […]
[2]; [16]
  AUC(0-t): […]
  Tmax: […]
[2]; [17]
  AUC(0-t): […]
  Tmax: […]
[2]; 30 mg, ECT 30 mg BID, 7-day schedule, Day 7, n=1, read-out: Mean t1/2 (sd) (converted)
  half-life: […]
[2]; [18]
  AUC(0-t): […]
  Tmax: […]
[2]; [19]
  AUC(0-t): […]
  Tmax: […]
[2]; 40 mg, ECT 40 mg BID, 7-day schedule, Day 7, n=4, read-out: Mean t1/2 (sd) (converted)
  half-life: […]
[2]; 50 mg, ECT 50 mg BID, 7-day schedule, Day 1, first dose, N 10
  Tmax: […]
[2]; 50 mg, ECT 50 mg BID, 7-day schedule, Day 1, first dose, n=9
  AUC(0-t): […]
[2]; [20]
  AUC(0-t): […]
  Tmax: […]
[2]; 50 mg, ECT 50 mg BID, 7-day schedule, Day 7, n=5, read-out: Mean t1/2 (sd) (converted)
  half-life: […]
[2]; multiple-dose administration, PIC and ECT, read-out: overall mean steady-state t1/2 (terminal half-life) (converted)
  half-life: […]
[2]; multiple-dose administration, PIC and ECT, read-out: steady-state t1/2, range
  half-life: […]
[3]; 13 patients with SD
  duration of stable disease: […]
[3]; 47 response-evaluable patients
  patients achieving partial response (PR): […]
  patients with partial response (PR): […]
[3]; N = 58
  patients discontinued due to progressive disease: 64%
[4]
  on-study deaths considered treatment-related: none
[5]
  Ki: […]
[6]
  IC50: […]
[7]
  IC50: […]
[8]
  effect on MM cells: mitotic spindle abnormalities, mitotic accumulation, and apoptosis
[9]; P = 0.0044
  overall survival: significantly increased
[9]; P = 0.007
  tumor burden: significantly reduced
[10]
  tumor growth: inhibit tumor growth
[11]
  maximum tolerated dose (MTD): […]
[12]; 48 treated patients
  CR: […]
  PR: […]
  overall response rate: […]
  patients achieving SD: […]
[12]
  patients with T-cell lymphoma who had a response: […]
[13]
  aqueous solubility: low
[14]
  effect on PTCL cell lines: induces endo-reduplication and apoptosis
[15]; N = 58
  patients reporting drug-related AEs: […]
[15]; all cohorts
  grade 3 or higher febrile neutropenia, frequency: […]
[15]; all cohorts, N = 58
  grade ≥3 drug-related anemia, patients: […]
  grade ≥3 drug-related leukopenia, patients: […]
  grade ≥3 drug-related neutropenia, patients: […]
  grade ≥3 drug-related thrombocytopenia, patients: […]
[15]; all doses and schedules
  Alopecia, drug-related AE, All grades: […]
  Anemia, drug-related AE, All grades: […]
  Anemia, drug-related AE, Grade ≥3: […]
  Decreased WBC count, drug-related AE, All grades: […]
  Decreased WBC count, drug-related AE, Grade ≥3: […]
  Diarrhea, drug-related AE, All grades: […]
  Diarrhea, drug-related AE, Grade ≥3: […]
  Fatigue, drug-related AE, All grades: […]
  Fatigue, drug-related AE, Grade ≥3: […]
  Febrile neutropenia, drug-related AE, All grades: […]
  Febrile neutropenia, drug-related AE, Grade ≥3: […]
  Leukopenia, drug-related AE, All grades: […]
  Leukopenia, drug-related AE, Grade ≥3: […]
  Lymphopenia, drug-related AE, All grades: […]
  Lymphopenia, drug-related AE, Grade ≥3: […]
  Nausea, drug-related AE, All grades: […]
  Neutropenia, drug-related AE, All grades: […]
  Neutropenia, drug-related AE, Grade ≥3: […]
  Somnolence, drug-related AE, All grades: […]
  Stomatitis, drug-related AE, All grades: […]
  Stomatitis, drug-related AE, Grade ≥3: […]
  Thrombocytopenia, drug-related AE, All grades: […]
  Thrombocytopenia, drug-related AE, Grade ≥3: […]
  Vomiting, drug-related AE, All grades: […]
[15]; during treatment or within 30 days of last dose
  On-study deaths: […]
[15]; in vivo
  discontinued treatment due to drug-related bullous dermatitis: […]
  discontinued treatment due to drug-related confusion: […]
  discontinued treatment due to drug-related thrombocytopenia: […]
[15]; patients with advanced heme-lymphatic malignancies
  tolerability: generally well tolerated
[15]; safety population
  Any AE resulting in discontinuation: […]
  Any drug-related AE: […]
  Any drug-related grade ≥3 AE: […]
  Any treatment-emergent AE: […]
  Any treatment-emergent grade ≥3 AE: […]
  Any treatment-emergent serious AE: […]
